Where two headings read alike, the source gives them in different places.
How the values were obtained:
TSPO [1] = settings: literature; cited from earlier work
TSPO [2] = settings: literature (Ikawa et al.); cited from earlier work
TSPO [3] = experiment: Competition binding assay against ^3H-PK11195 in human brain homogenate (HAB, MAB, LAB); settings: for LAB:HAB affinity ratio: rs6971 polymorphism; for difference between HAB and LAB in individually calculated affinity values: unpaired t-test
Procedure: (§1) All studies using human tissue were conducted in accordance with the East of Scotland Research Ethics Service (Edinburgh Brain Bank, 11/ES/0022). […] To exclude sex dependent differences in TSPO binding (Fairweather et al.), only male samples were utilized in this study. Sample tissues were homogenized in 10× w/v buffer (50 mM Tris-Base, pH 7.4, 4° C.) before centrifugation (32,000 g, 10 min, 4° C.). Tissue pellets were then resuspended in 10× w/v buffer and centrifuged again before re-suspending them in buffer (2 mL). Samples were then assessed for protein concentration using the Bio-Rad protein assay (Bio-Rad, USA), aliquoted and stored at −80° C. until use.
(§2) Competition binding assays were carried out as previously reported (Blair et al. (Med. Chem. Commun.)). […] A concentration of 8 μM was used to determine non-specific binding for each ligand. Binding was terminated with the addition of 2 mL of ice cold buffer before being immediate filtered over a Whatman GF/B filters (Whatman, UK) pre-treated with 0.3% polyethylenimine (Sigma-Aldrich, USA) using a Brandel harvester (Brandel, USA). Filter paper was then removed, placed into 2.5 mL of Optiphase HiSafe 3 (Perkin Elmer, USA) and counted 48 hours later on a Hidex 300 SL (Hidex, Finland). […] All binding assays were performed in triplicate. GraphPad Prism version 6 (GraphPad Software, USA) was used to fit all binding affinity curves. A comparison of a one-site and two-site fitting was made using the least squares algorithm and model selection was compared using an F test. The null hypothesis (that one-site fitting as more suitable) was rejected if p<0.05. The mean % SB normalized to the minimum inhibition of each group (HAB, MAB or LAB) was used to determine whether a one-site or two-site fitting was appropriate, and to subsequently calculate LAB:HAB ratio. Affinity values (Ki) were calculated by fitting individual tissue samples based on the mean group fitting.

TSPO [4] = experiment: Competition binding assay against ^3H-PK11195 in human heart homogenate (HAB, MAB, LAB); settings: for LAB:HAB ratio: rs6971 polymorphism; for difference between HAB and LAB in individually calculated affinity values: unpaired t-test
Procedure: as §1, §2

TSPO [5] = target: TSPO (Homo sapiens, UniProt P30536); experiment: Competition binding assay against ^3H-PK11195 in human brain homogenate (HAB, MAB, LAB); parameters: other: human brain; other: human heart
Procedure: as §1
Competition binding assays were carried out as previously reported (Blair et al. (Med. Chem. Commun.)). […] A concentration of 8 μM was used to determine non-specific binding for each ligand. Binding was terminated with the addition of 2 mL of ice cold buffer before being immediate filtered over a Whatman GF/B filters (Whatman, UK) pre-treated with 0.3% polyethylenimine (Sigma-Aldrich, USA) using a Brandel harvester (Brandel, USA). Filter paper was then removed, placed into 2.5 mL of Optiphase HiSafe 3 (Perkin Elmer, USA) and counted 48 hours later on a Hidex 300 SL (Hidex, Finland). […] Affinity values (Ki) were calculated by fitting individual tissue samples based on the mean group fitting.

[6] = Pharmacokinetic/Pharmacodynamic study of PK11195 tissue exposure; type: in vivo; settings: Sprague-Dawley, rat, rats, mean±SEM, n=3, read-out: exposure level
[7] = in humans; literature; cited from earlier work

Chain of TSPO (Homo sapiens, UniProt P30536) (P30536 whole entry): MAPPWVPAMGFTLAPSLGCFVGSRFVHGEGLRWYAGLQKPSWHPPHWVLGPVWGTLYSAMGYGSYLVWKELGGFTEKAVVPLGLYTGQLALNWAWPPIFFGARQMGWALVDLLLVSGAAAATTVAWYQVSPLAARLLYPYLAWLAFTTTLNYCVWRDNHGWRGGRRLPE

Row | SMILES | LAB:HAB affinity ratio (TSPO [3]) | difference between HAB and LAB in individually calculated affinity values (TSPO [3]) | LAB:HAB ratio (TSPO [4]) | difference between HAB and LAB in individually calculated affinity values (TSPO [4]) | also measured
1 | CC[C@@H](C)N([11CH3])C(=O)c1nc(-c2ccccc2Cl)c2ccccc2n1 [^11C-ER176] |  |  |  |  | LAB:HAB ratio in vitro (TSPO [1]): 1.3; LAB:HAB ratio in vivo (TSPO [2]): around 3
2 | COc1ccccc1CN(C(C)=O)c1cnccc1Oc1ccccc1 [PBR28] | 49 | significant difference | 48 |  | 
3 | CC[C@@H](C)N(C)C(=O)c1nc2ccccc2c(-c2ccccc2)c1CF [LW223, (R)-(N-sec-Butyl)-3-fluoromethyl-N-methyl-4-phenylquinoline-2-carboxamide] | 1 | no significant difference | 1 | no significant difference | mean affinity relative to PK11195 (TSPO [5]): 2 times; Ki (TSPO [5]; read-out: mean affinity (Ki)): 600 pM
4 | CCN(CC)C(=O)c1nc2ccccc2c(-c2ccccc2)c1CF [AB5186] | 9 | significant difference | 7 |  | 
5 | CCC(C)N(C)C(=O)c1cc2ccccc2c(-c2ccccc2Cl)n1 (centres unmarked) [PK11195] |  | no significant difference |  | no significant difference | concentration at 1 h ([6]; brain): 11 ± 1.99 ng/mL; concentration at 1 h ([6]; heart): 29.3 ± 3.93 ng/mL; concentration at 1 h ([6]; lungs): 38.9 ± 2.24 ng/mL
6 | CCC(C)N(C)C(=O)c1cc2ccccc2c(-c2ccccc2Cl)n1 (centres unmarked) [^11C-PK11195] |  |  |  |  | plasma free fraction [7]: 1-6%

Source: patent US12129235B2, “TSPO binders” (The University Court of the University of Glasgow, priority 2018, dated 2024)
